Assay results reported in patent publication US20020049223A1, “Quinoline and naphthyridine carboxylic acid antibacterials” (priority 1999, published 2002).

What was measured:
Assay in all cases: Assay B: in vitro antibacterial activity, broth microdilution MIC (NCCLS)
Assay type in all cases: cell-based
[1] = test system: Enterococcus faecalis PIU 1967; settings: Table 2, Assay B, cation-adjusted Mueller Hinton broth, 35° C., 16 to 20 hr; code B = Enterococcus faecalis PIU 1967; unit assumed
Method: (§1) Assay B. Determination of Biological Activity In Vitro Assay of Antibacterial Activity
(§2) Representative compounds of the invention were assayed in vitro for antibacterial activity. The susceptibilities of aerobic, nonfastidious species were determined visually by broth microdilution as described by the National Committee for Clinical Laboratory Standards (NCCLS) (National Committee for Clinical Laboratory Standards. 1997. Methods for dilution antimicrobial susceptibility tests for bacteria that grow aerobically. Approved standard M7-A4. National Committee for Clinical Laboratory Standards. Wayne, Pa.). In brief, serial two-fold dilutions of test compounds were made in cation-adjusted Mueller Hinton broth at two-times the final concentration. Inocula were prepared from overnight cultures of test strains. Tests were inoculated with a suspension of bacteria in Mueller Hinton broth to achieve a final density of approximately 5×10^5 CFU/mL. Tests were incubated at 35° C. in ambient air for 16 to 20 hr. Minimum Inhibitory Concentrations (MICs) were determined as the lowest drug concentration completely inhibiting growth. Ciprofloxacin was included as a control. For testing S. pneumoniae, the cation-adjusted Mueller Hinton broth was supplemented with 3% lysed horse blood and the incubation period was extended to 20 to 24 hr. For testing H. influenzae, the cation-adjusted Mueller Hinton broth was supplemented with 5 g/L yeast extract, […] and 15 mg/L NAD and incubation was extended to 20 to 24 hr..

Escherichia coli JUHL = settings: Table 2, Assay B, cation-adjusted Mueller Hinton broth, 35° C., 16 to 20 hr; code D = Escherichia coli JUHL; unit assumed
Method: as §1, §2

[2] = test system: Haemophilus influenzae DILL AMP R; settings: Table 2, Assay B, Mueller Hinton broth with yeast extract, hematin and NAD, 20 to 24 hr; code E = Haemophilus influenzae DILL AMP R; unit assumed
Method: as §1, §2

[3] = test system: Staphylococcus aureus ATCC 6538P; settings: Table 2, Assay B, cation-adjusted Mueller Hinton broth, 35° C., 16 to 20 hr; code A = Staphylococcus aureus ATCC 6538P; unit assumed
Method: as §1, §2

[4] = test system: Streptococcus pneumoniae ATCC 6303; settings: Table 2, Assay B, Mueller Hinton broth with 3% lysed horse blood, 20 to 24 hr; code F = Streptococcus pneumoniae ATCC 6303; unit assumed
Method: as §1, §2

Row | Compound | Antibacterial Activity (MIC's), B [1] | Antibacterial Activity (MIC's), D (Escherichia coli JUHL) | Antibacterial Activity (MIC's), E [2] | Antibacterial Activity (MIC's), A [3] | Antibacterial Activity (MIC's), F [4]
1 | COc1c(-c2cc3c(s2)CCCC3)ccc2c(=O)c(C(=O)O)cn(C3CC3)c12 [Example 243, 1-cyclopropyl-8-methoxy-4-oxo-7-(4,5,6,7-tetrahydro-1-benzothien-2-yl)-1,4-dihydro-3-quinolinecarboxylic acid] | 0.25 µg/mL | 1 µg/mL | 0.25 µg/mL | 0.015 µg/mL | 1 µg/mL
2 | CNC1CCCc2sc(-c3cc4c(cc3F)c(=O)c(C(=O)O)cn4C3CC3)cc21.Cl (centres unmarked) [Example 290, 1-cyclopropyl-6-fluoro-7-(4-(methylamino)-4,5,6,7-tetrahydro-1-benzothien-2-yl)-4-oxo-1,4-dihydroquinoline-3-carboxylic acid hydrochloride] | 0.125 µg/mL | 0.03 µg/mL | 0.015 µg/mL | 0.03 µg/mL | 0.03 µg/mL
3 | CNC1CCc2sc(-c3ccc4c(=O)c(C(=O)O)cn(C5CC5)c4c3OC)cc2C1.Cl (centres unmarked) [Example 125, 1-cyclopropyl-8-methoxy-7-(5-(methylamino)-4,5,6,7-tetrahydro-1-benzothien-2-yl)-4-oxo-1,4-dihydro-3-quinolinecarboxylic acid hydrochloride] | 0.25 µg/mL | 0.125 µg/mL | 0.03 µg/mL | 0.004 µg/mL | 0.03 µg/mL
4 | COc1c(-c2cc3c(s2)CC(C)(C)CC3N)ccc2c(=O)c(C(=O)O)cn(C3CC3)c12.Cl (centres unmarked) [Example 238, 7-(4-amino-6,6-dimethyl-4,5,6,7-tetrahydro-1-benzothien-2-yl)-1-cyclopropyl-8-methoxy-4-oxo-1,4-dihydro-3-quinolinecarboxylic acid hydrochloride] | 0.5 µg/mL | 0.25 µg/mL | 0.125 µg/mL | 0.03 µg/mL | 0.06 µg/mL
5 | Cc1c(-c2cc3c(s2)C(O)CCC3)c(F)cc2c(=O)c(C(=O)O)cn(C3CC3)c12 (centres unmarked) [Example 369, 1-cyclopropyl-6-fluoro-7-(7-hydroxy-4,5,6,7-tetrahydro-1-benzothien-2-yl)-8-methyl-4-oxo-1,4-dihydroquinoline-3-carboxylic acid] | 0.03 µg/mL | 0.06 µg/mL | ≤ 0.004 µg/mL | ≤ 0.004 µg/mL | 0.03 µg/mL
6 | Cl.NC1CCCc2cc(-c3ccc4c(=O)c(C(=O)O)cn(C5CC5)c4n3)sc21 (centres unmarked) [Example 282, 7-(7-amino-4,5,6,7-tetrahydro-1-benzothien-2-yl)-1-cyclopropyl-4-oxo-1,4-dihydro-1,8-naphthyridine-3-carboxylic acid hydrochloride] | 0.03 µg/mL | 0.015 µg/mL | 0.03 µg/mL | 0.008 µg/mL | 0.015 µg/mL
7 | COc1c(-c2cc3c(s2)CCCC3CN)ccc2c(=O)c(C(=O)O)cn(C3CC3)c12 (centres unmarked) [Example 130, 7-(4-(aminomethyl)-4,5,6,7-tetrahydro-1-benzothien-2-yl)-1-cyclopropyl-8-methoxy-4-oxo-1,4-dihydro-3-quinolinecarboxylic acid] | 0.125 µg/mL | 0.06 µg/mL | 0.015 µg/mL |  | 0.125 µg/mL
8 | COc1c(-c2cc3c(s2)CCCC3=NOCc2ccncc2)ccc2c(=O)c(C(=O)O)cn(C3CC3)c12 [Example 131, 1-cyclopropyl-8-methoxy-4-oxo-7-((4E/Z)-4-((4-pyridinylmethoxy)imino)-4,5,6,7-tetrahydro-1-benzothien-2-yl)-1,4-dihydro-3-quinolinecarboxylic acid] | 0.5 µg/mL | 1 µg/mL | 0.125 µg/mL |  | 0.5 µg/mL
